Values joined by “and” are separate entries in the source; they are usually repeats but may differ in a detail not shown here. Equal values may be shown once.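 Grown in 96-well plates, cells were treated for 48 hours with each compound at five concentrations. Insufficient inhibition: endpoint recorded as highest concentration tested. Abbreviation: GI50, concentration required for 50% inhibition of growth. TGI marks complete inhibition of growth.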
Key:
Assay in all cases: inhibition of tumour cell growth, NCI panel, 48 h
DU-145 prostate = system: DU-145 prostate
NCI-H23 lung = system: NCI-H23 lung
CAKI-1 renal = system: CAKI-1 renal
NCI-H522 lung = system: NCI-H522 lung
ACHN renal = system: ACHN renal
SK-OV-3 ovarian = system: SK-OV-3 ovarian
U251 CNS = system: U251 CNS
MOLT-4 leukemia = system: MOLT-4 leukemia
A498 renal = system: A498 renal
OVCAR-4 ovarian = system: OVCAR-4 ovarian

| Compound | GI50 (DU-145 prostate) | TGI (DU-145 prostate) | GI50 (NCI-H23 lung) | TGI (NCI-H23 lung) | GI50 (CAKI-1 renal) | TGI (CAKI-1 renal) | GI50 (NCI-H522 lung) [µM] | TGI (NCI-H522 lung) [µM] | GI50 (ACHN renal) | TGI (ACHN renal) | GI50 (SK-OV-3 ovarian) | TGI (SK-OV-3 ovarian) | GI50 (U251 CNS) | TGI (U251 CNS) | GI50 (MOLT-4 leukemia) [µM] | TGI (MOLT-4 leukemia) | GI50 (A498 renal) [µM] | TGI (A498 renal) [µM] | TGI (OVCAR-4 ovarian) [µM] | GI50 (OVCAR-4 ovarian) [µM] |
| --- | --- | --- | --- | --- | --- | --- | --- | --- | --- | --- | --- | --- | --- | --- | --- | --- | --- | --- | --- | --- |
| NC(N)=N/N=C/c1c(-c2ccccn2)nc2sc(Cl)cn12 | 7.68 µM | 14.4 µM | 11.5 µM | 19.1 µM | 8.59 µM | 15.6 µM | 7.86 | 15.3 | 7.49 µM | 15.3 µM | 9.1 µM | 17.9 µM | 8.28 µM | 15.1 µM |  |  |  |  |  |  |
| CC1(C)OC(=O)C=C([O-])O1.CC1(C)OC(=O)C=C([O-])O1.O=c1c(O)c(-c2ccc([O-])cc2[O-])oc2cc(O)cc(O)c12.[Ti+4] |  |  |  | 73.7 µM |  | > 100 µM |  | 63 |  | > 100 µM | 83.1 µM | > 100 µM |  |  | 31.6 | > 100 µM | 58.1 | > 100 | > 100 |  |
| Oc1c2c(c(O)c3ccccc13)=N[C@@H](c1ccccc1)[C@H](c1ccccc1)N=2 |  |  |  | > 100 µM |  | > 100 µM |  | > 100 |  | > 100 µM |  | > 100 µM |  | > 100 µM |  | > 100 µM |  | > 100 | > 100 |  |
| CCCS(=O)(=O)c1nc(NC2CC2)cc(-c2ccc3c(ccn3C3CC(C)(C)NC(C)(C)C3)c2)n1 | 1.71 µM | 3.19 µM |  |  | 1.56 µM | 3.05 µM |  |  | 1.77 µM | 3.35 µM | 1.86 µM | 3.46 µM |  |  | 2.02 | 4.57 µM | 1.81 | 3.37 |  |  |
| COc1cc(/C=C\c2ccc(O)cc2)cc(OC)c1OC |  |  |  |  |  | > 100 µM |  | > 22.4 |  | > 100 µM |  | 61.6 µM |  | > 23.6 µM |  | > 100 µM |  | > 100 | > 100 |  |
| CCCCCC(C(O)C#N)C(O)(C(F)(F)F)C(F)(F)F (stereo unspecified) |  | > 10 µM |  | > 10 µM |  | > 10 µM |  | > 10 |  | > 10 µM |  | > 10 µM |  | > 10 µM |  | > 10 µM |  |  | > 10 |  |
| CCOC(=O)/C(=C/c1ccco1)P(=O)(OCC)OCC |  |  |  | > 100 µM |  | > 100 µM |  | > 100 |  | > 100 µM |  | > 100 µM |  | > 100 µM |  | > 100 µM |  | > 100 | > 100 |  |
| NS(=O)(=O)c1ccc(NC(=O)c2cccc3c(=O)c4ccccc4[nH]c23)cc1 |  |  |  | > 100 µM |  | > 100 µM |  | 65.4 |  | > 100 µM |  | 65.6 µM |  | > 100 µM |  | > 100 µM |  | > 100 | > 100 |  |
| CNC(=O)c1cn(C[C@H](F)CCc2ccc(NC(=O)Cc3cc(OC4CC(F)(F)C4)cc(C)n3)nn2)nn1 | > 100 µM | > 100 µM | > 100 µM | > 100 µM |  |  | 5.18 | > 100 | > 100 µM | > 100 µM | > 100 µM | > 100 µM | 0.102 µM | > 100 µM | > 93.5 | > 100 µM | 0.0854 | 1.27 | > 100 | > 100 |
| CCCNCc1cc(C)cc2c1nc(N1CCNCC1)n2Cc1cc(C)c(F)c(C)c1 | 6.15 µM | 19.6 µM | 12.8 µM | 27.3 µM | 14.4 µM | 27.6 µM | 2.09 | 5.67 | 4.37 µM | 15.5 µM | 15.8 µM | 29.4 µM | 1.84 µM | 3.58 µM | 1.8 | 4.39 µM |  |  | 21.8 | 7.12 |
| CC(=O)O[C@H]1C(=O)[C@@]2(C)[C@H]([C@H](OC(=O)c3ccccc3)[C@]3([O-])C[C@H](OC(=O)[C@H]([O-])[C@@H](NC(=O)c4ccccc4)c4ccccc4)C(C)=C1C3(C)C)[C@]1(OC(C)=O)CO[C@@H]1C[C@@H]2[O-].[Fe+3] | 0.068 µM and 0.0595 µM | 0.272 µM and 0.595 µM | 0.0685 µM and 0.164 µM | 65 µM and > 100 µM | 2.41 µM and 3.53 µM | 54.5 µM and > 100 µM | 0.0385 | 12.8 | 2.48 µM and 2.96 µM | 65 µM and > 100 µM | 0.0724 µM and 0.142 µM | 11.9 µM and > 100 µM | 0.0357 µM and 0.0647 µM | 7.38 µM and 17.2 µM |  | 65 µM and > 100 µM |  |  | > 100 | 0.719 |
| O=c1c2ccccc2c2c3c1cccc3c1cccc3c(=O)c4ccccc4c2c31 |  |  |  | > 100 µM |  | > 100 µM |  | > 100 |  | > 100 µM |  | > 100 µM |  | > 100 µM |  | > 100 µM |  | > 100 | > 100 |  |
| Clc1ccc(OCc2nnc3n2N=C(c2ccc(Cl)cc2Cl)CS3)c(Cl)c1 | 33.6 µM | > 100 µM | 22.5 µM | 55.4 µM | 26.6 µM | 83 µM | 14.5 | 37.6 | 20.5 µM | 49.9 µM | 43 µM | > 100 µM | 18.7 µM | 46.8 µM | 22.8 | > 100 µM |  |  | > 100 | 28.1 |

From PubChem BioAssay (NCI)
